Measurements as given in US20160296499A1, “Spiroindoline Antiparasitic Derivatives” (ZOETIS SERVICES LLC, priority 2013, published 2016).
Where two headings read alike, the source gives them in different places.

How the values were obtained:
[1] = test system: Dirofilaria immitis microfilariae; test: Dirofilaria immitis, Microfilariae (DiMF) In Vitro Assay; conditions: Dirofilaria immitis
[2] = biological target: T1, bovine vesicular acetylcholine transporter (VAChT) (Bos taurus, UniProt E1BK36); test: Radioligand Binding Assay; conditions: Bovine binding Ki, CHO-K1 membranes with recombinant bovine VAChT, [3H]Compound X6 0.3 nM
T1 sequence (E1BK36 1-524): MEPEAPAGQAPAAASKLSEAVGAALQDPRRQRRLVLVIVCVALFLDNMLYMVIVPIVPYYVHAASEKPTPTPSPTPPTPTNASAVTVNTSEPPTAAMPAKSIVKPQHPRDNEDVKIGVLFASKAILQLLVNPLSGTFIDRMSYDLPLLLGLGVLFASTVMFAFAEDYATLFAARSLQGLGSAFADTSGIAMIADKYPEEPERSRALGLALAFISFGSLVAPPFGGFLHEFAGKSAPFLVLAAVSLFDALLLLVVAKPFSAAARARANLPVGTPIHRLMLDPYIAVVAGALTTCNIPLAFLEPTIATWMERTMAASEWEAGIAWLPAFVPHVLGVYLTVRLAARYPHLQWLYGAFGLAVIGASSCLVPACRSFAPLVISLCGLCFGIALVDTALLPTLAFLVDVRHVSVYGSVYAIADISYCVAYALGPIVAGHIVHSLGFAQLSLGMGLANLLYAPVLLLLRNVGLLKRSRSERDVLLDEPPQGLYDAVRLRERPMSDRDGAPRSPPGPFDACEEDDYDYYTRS

[3] = test system: Haemonchus contortus L3; test: Haemonchus contortus, Larvae Stage 3 (HcL3) In Vitro Assay; conditions: Haemonchus contortus
[4] = 72 h, read-out: Di MF, MEC, decrease in microfilariae motility by visual assessment, curve starting at 100 μM
[5] = 96 h, read-out: HcL3 MEC, Minimal Effective Concentration whereby worm motility is inhibited by approximately 70%, 37° C., tested 0.001-100 μM

SMILES | minimal effective concentration [1, 4] [µM] | Ki [2] [nM] | minimal effective concentration [3, 5] [µM] | minimal effective concentration ([1]; 72 hours, read-out: Di MF) [µM] | minimal effective concentration ([3]; 96 hours, 37° C., read-out: HcL3 MEC) [µM]
COc1cc2c(cn1)C1(CCN(C/C=C/c3ccc(Cl)c(Cl)c3)CC1)CN2C(=O)NCc1ccnc(Cl)c1 [Example 65, (E)-N-((2-chloropyridin-4-yl)methyl)-1-(3-(3,4-dichlorophenyl)allyl)-6′-methoxyspiro[piperidine-4,3′-pyrrolo[3,2-c]pyridine]-1′(2′H)-carboxamide] | 1.8 | 49.4 | 3.3 | – | –
N#Cc1cc2c(cn1)N(C(=O)NCc1ccnc(Cl)c1)CC21CCN(C/C=C/c2ccc(Cl)c(Cl)c2)CC1 [Example 66, (E)-N-((2-chloropyridin-4-yl)methyl)-5′-cyano-1-(3-(3,4-dichlorophenyl)allyl)spiro[piperidine-4,3′-pyrrolo[2,3-c]pyridine]-1′(2′H)-carboxamide] | 10 | 24.1 | 1.8 | – | –
N#Cc1ccc2c(n1)C1(CCN(C/C=C/c3ccc(Cl)c(Cl)c3)CC1)CN2C(=O)NCc1ccnc(Cl)c1 [Example 67, (E)-N-((2-chloropyridin-4-yl)methyl)-5′-cyano-1-(3-(3,4-dichlorophenyl)allyl)spiro[piperidine-4,3′-pyrrolo[3,2-b]pyridine]-1′(2′H)-carboxamide] | 5.7 | 33.5 | 10 | – | –
COc1nccc2c1C1(CCN(C/C=C/c3ccc(Cl)c(Cl)c3)CC1)CN2C(=O)NCc1ccnc(Cl)c1 [Example 68, (E)-N-((2-chloropyridin-4-yl)methyl)-1-(3-(3,4-dichlorophenyl)allyl)-4′-methoxyspiro[piperidine-4,3′-pyrrolo[3,2-c]pyridine]-1′(2′H)-carboxamide] | 1.3 | 815 | 33 | – | –
O=C(NCc1ccnc(F)c1)N1CC2(CCN(C/C=C/c3ccc(Cl)cc3)CC2)c2cc(F)c(Cl)cc21 [Example 69, (E)-6-chloro-1′-(3-(4-chlorophenyl)allyl)-5-fluoro-N-((2-fluoropyridin-4-yl)methyl)spiro[indoline-3,4′-piperidine]-1-carboxamide] | 6.5 | 55.2 | 2.5 | – | –
O=C(NCc1ccnc(F)c1)N1CC2(CCN(C/C=C/c3ccc(Cl)cc3)CC2)c2cc(Cl)c(Cl)cc21 [Example 70, (E)-5,6-dichloro-1′-(3-(4-chlorophenyl)allyl)-N-((2-fluoropyridin-4-yl)methyl)spiro[indoline-3,4′-piperidine]-1-carboxamide] | 7.6 | 252 | 3.3 | – | –
O=C(NCc1ccnc(F)c1)N1CC2(CCN(C/C=C/c3ccc(Cl)cc3)CC2)c2cc(Cl)c(F)cc21 [Example 71, (E)-5-chloro-1′-(3-(4-chlorophenyl)allyl)-6-fluoro-N-((2-fluoropyridin-4-yl)methyl)spiro[indoline-3,4′-piperidine]-1-carboxamide] | 3.3 | 31.4 | 3.3 | – | –
N#Cc1ccc(/C=C/CN2CCC3(CC2)CN(C(=O)NCc2ccnc(Cl)c2)c2cc(C(F)(F)F)c(Cl)cc23)cc1 [Example 72, (E)-5-chloro-N-((2-chloropyridin-4-yl)methyl)-1′-(3-(4-cyanophenyl)allyl)-6-(trifluoromethyl)spiro[indoline-3,4′-piperidine]-1-carboxamide] | 3.3 | 27 | 10 | – | –
O=C(NCc1ccnc(F)c1)N1CC2(CCN(C/C=C/c3ccc(Cl)cc3)CC2)c2ccc(-c3ccccc3OC(F)(F)F)cc21 [Example 73, (E)-1′-(3-(4-chlorophenyl)allyl)-N-((2-fluoropyridin-4-yl)methyl)-6-(2-(trifluoromethoxy)phenyl)spiro[indoline-3,4′-piperidine]-1-carboxamide] | 3.3 | 29.5 | 100 | – | –
O=C(NCc1ccnc(Cl)c1)N1CC2(CCN(C/C=C/c3ccc(Cl)cc3)CC2)c2cc(-n3ccccc3=O)ccc21 [Example 74, (E)-1′-(3-(4-chlorophenyl)allyl)-N-((2-chloropyridin-4-yl)methyl)-5-(2-oxopyridin-1(2H)-yl)spiro[indoline-3,4′-piperidine]-1-carboxamide] | 2.4 | 11600 | 100 | – | –
O=C(NCc1ccnc(F)c1)N1CC2(CCN(C/C=C/c3ccc(Cl)cc3)CC2)c2cc(-n3ccccc3=O)ccc21 [Example 75, (E)-1′-(3-(4-chlorophenyl)allyl)-N-((2-fluoropyridin-4-yl)methyl)-5-(2-oxopyridin-1(2H)-yl)spiro[indoline-3,4′-piperidine]-1-carboxamide] | 4.4 | 11600 | 100 | – | –
O=C(NCc1ccnc(Cl)c1)N1CC2(CCN(C/C=C/c3ccc(Cl)cc3)CC2)c2cc(N3CCCC3)ccc21 [Example 76, (E)-1′-(3-(4-chlorophenyl)allyl)-N-((2-chloropyridin-4-yl)methyl)-5-(pyrrolidin-1-yl)spiro[indoline-3,4′-piperidine]-1-carboxamide] | 1.8 | 1420 | 100 | – | –
O=C(NCc1ccnc(F)c1)N1CC2(CCN(C/C=C/c3ccc(Cl)cc3)CC2)c2cc(OC(F)(F)F)ccc21 [Example 77, (E)-1′-(3-(4-chlorophenyl)allyl)-N-((2-fluoropyridin-4-yl)methyl)-5-(trifluoromethoxy)spiro[indoline-3,4′-piperidine]-1-carboxamide] | – | 870 | – | 3.3 | 5.7
O=C(NCc1ccnc(Cl)c1)N1CC2(CCN(C/C=C/c3ccc(Cl)cc3)CC2)c2cc(S(=O)(=O)C(F)(F)F)ccc21 [Example 78, (E)-1′-(3-(4-chlorophenyl)allyl)-N-((2-chloropyridin-4-yl)methyl)-5-(trifluoromethylsulfonyl)spiro[indoline-3,4′-piperidine]-1-carboxamide] | 1 | 1290 | 100 | – | –
CS(=O)(=O)c1ccc2c(c1)C1(CCN(C/C=C/c3ccc(Cl)cc3)CC1)CN2C(=O)NCc1ccnc(Cl)c1 [Example 79, (E)-1′-(3-(4-chlorophenyl)allyl)-N-((2-chloropyridin-4-yl)methyl)-5-(methylsulfonyl)spiro[indoline-3,4′-piperidine]-1-carboxamide] | 10 | 11300 | 100 | – | –
O=C(NCc1ccnc(Cl)c1)N1CC2(CCN(C/C=C/c3ccc(Cl)cc3)CC2)c2cc(SC(F)(F)F)ccc21 [Example 80, (E)-1′-(3-(4-chlorophenyl)allyl)-N-((2-chloropyridin-4-yl)methyl)-5-(trifluoromethylthio)spiro[indoline-3,4′-piperidine]-1-carboxamide] | 10 | 191 | 100 | – | –
O=C(NCc1ccnc(Cl)c1)N1CC2(CCN(C/C=C/c3ccc(Cl)cc3)CC2)c2cc(-c3nccs3)ccc21 [Example 81, (E)-1′-(3-(4-chlorophenyl)allyl)-N-((2-chloropyridin-4-yl)methyl)-5-(thiazol-2-yl)spiro[indoline-3,4′-piperidine]-1-carboxamide] | 7.6 | 308 | 100 | – | –
